Tests used:
[1] = tested on: Human umbilical vein endothelial cells (HUVECs); assay: HDL-induced endothelial NO release, DAN assay; format: cell-based; conditions: HDL 50 μg/ml preincubated 3 h with 10, 20, 50 μg/ml; HUVECs 2 h
Protocol: HUVECs were stimulated for 2 h with HDL (50 μg/ml) preincubated with DMSO, lyso-DGTS and S1P at final concentrations of 10, 20, and 50 μg/ml for 3 h. Media were then collected and treated with nitrate reductase followed by analysis using the DAN assay. Data are expressed as NO concentration (μM) released by the cells. Each experiment was repeated separately at least three times. *p<0.05, ***p<0.0001 related to the control (HDL without lyso-DGTS or S1P). Statistics were analyzed using one-way annova Graphpad prism 5 software.
Human umbilical vein endothelial cells (HUVECs) were incubated for 2 hours with HDL preincubated with different concentration of lyso-DGTS or S1P for 3 hours, and NO production determined using 2,3-diaminonapthalene (DAN) assay.

[2] = tested on: J774A.1 macrophages; conditions: as previously shown; cited from earlier work
[3] = target: PON1 (Homo sapiens, UniProt P27169); conditions: Cohen et al., 2014; cited from earlier work
Chain of PON1 (P27169 whole entry, species assumed): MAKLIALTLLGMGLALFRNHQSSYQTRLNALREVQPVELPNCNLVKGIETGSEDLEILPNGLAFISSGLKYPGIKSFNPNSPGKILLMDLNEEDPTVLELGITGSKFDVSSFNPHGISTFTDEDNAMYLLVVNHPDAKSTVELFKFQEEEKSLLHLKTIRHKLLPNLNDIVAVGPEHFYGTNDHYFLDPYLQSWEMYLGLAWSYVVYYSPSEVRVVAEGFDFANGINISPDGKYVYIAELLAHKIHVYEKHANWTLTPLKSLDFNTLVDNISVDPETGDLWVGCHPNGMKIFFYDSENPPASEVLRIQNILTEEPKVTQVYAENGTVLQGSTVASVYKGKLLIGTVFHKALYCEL

[4] = tested on: rePON1; conditions: 25° C.; Cohen et al., 2014; cited from earlier work

Molecule	effect on HDL ability to induce endothelial NO release [1]	effect on PON1 uptake by macrophage cells [2]	decrease of the ratio between HDL-PON1 and free-PON1 [3] [%]	Binding constant Ka to PON1 [4] [M⁻¹]
CCCCCCCCCCCCC/C=C/[C@@H](O)[C@@H](N)COP(=O)(O)O [S1P, Sphingosine 1-Phosphate, reference compound]	significantly increased the HDL ability to induce endothelial NO release at a dose dependent manner	–	–	–
PC 16:0 18:2	–	enhance PON1 uptake by macrophage cells	50	1680
